# Assay results reported in ChEMBL document CHEMBL4130623, “Discovery of Highly Potent Pinanamine-Based Inhibitors against Amantadine- and Oseltamivir-Resistant Influenza A Viruses” (J Med Chem, 2018).
# Experiments:
# Assay in all cases: microbe, parasite or virus in culture
# Format in all cases: functional, organism-based
# Details in all cases: A/Guangzhou/GIRD/07/2009 (H1N1), MDCK
# Influenza A virus [1] = system: Influenza A virus
# Influenza A virus [2] = system: Influenza A virus; remark: listed apart in the source
# Influenza A virus [3] = system: Influenza A virus; remark: listed apart in the source
# Influenza A virus [4] = system: Influenza A virus; remark: listed apart in the source
# Influenza A virus [5] = system: Influenza A virus; remark: listed apart in the source
# Influenza A virus [6] = system: Influenza A virus; remark: listed apart in the source
# Influenza A virus [7] = system: Influenza A virus; remark: listed apart in the source
# Influenza A virus [8] = system: Influenza A virus; remark: listed apart in the source
# Influenza A virus [9] = system: Influenza A virus; remark: listed apart in the source
smiles,measurement,setting,value
"C[C@@H]1C2CC(C[C@H]1NCc1sccc1C1CC1)C2(C)C (single isomer, unassigned)",EC50,Influenza A virus [1],8.7 µM
same,EC50,Influenza A virus [2],> 43 µM
same,EC50,Influenza A virus [3],> 43 µM
same,EC50,Influenza A virus [4],25.6 µM
same,EC50,Influenza A virus [5],13.8 µM
same,EC50,Influenza A virus [6],0.34 µM
same,EC50,Influenza A virus [7],0.32 µM
same,EC50,Influenza A virus [8],> 43 µM
same,EC50,Influenza A virus [9],1.7 µM
